These results are taken from patent US12252481B2, “Anti-viral compounds” (Aligos Therapeutics, Inc., priority 2021, dated 2025).

The test system of one data set is SARS-CoV-2. The following applies: cited from earlier work.
The next data set has as its target 3CLpro (Severe acute respiratory syndrome coronavirus 2, UniProt P0DTD1). Particulars: cited from earlier work.
The target in the next data set is T1, SARS-Cov-2 3CLpro (Severe acute respiratory syndrome coronavirus 2, UniProt P0DTD1).
T1 construct: 3CLpro and HRV3C was added using a Multidrop Combi
Kind of data set: biochemical.

The target in the next data set is T2, HRV3C (Human rhinovirus 14, UniProt P03303).
T2 construct: 3CLpro and HRV3C was added using a Multidrop Combi
In words: biochemical. Details: species or system HRV.

Data set [1] relates to human beta-coronavirus OC43. In words: OC43 coronavirus antiviral assay in HeLa cells (cytopathic effect, cell-titer-glo). Format: cell-based. The following applies: Betacoronavirus 1, OC43, HeLa, 144 h, 6 days at 33° C., read-out: EC50 (class). (Protection from cytopathic effect is a common read-out in antiviral testing.)
In data set [2] the test system is SARS-CoV-2-GHB-03021/2020. Format: cell-based. Particulars: read-out: VeroE6 + CP (EC50).
Data set [3] concerns B.1.1.7 lineage SARS-CoV-2. In words: microbe, parasite or virus in culture. Particulars: Severe acute respiratory syndrome coronavirus 2, 96 h, read-out: A549-dual_ACE2_TMPRSS2 (EC50). Format: cell-based.
Another data set has as its target T3, human cathepsin L (Homo sapiens, UniProt P07711).
T3 construct: purchased R&D Systems
Kind of data set: Cathepsin L assay (Z-FR-AMC fluorescence). In kind it is biochemical. The following applies: 10 pM human cathepsin L, 30 mins preincubation, Z-FR-AMC 2 μM. Put shortly: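 Human cathepsin L (10 pM) was preincubated 30 min with compound, then reactions were started with Z-FR-AMC substrate (2 μM final). AMC fluorescence (355/460 nm) was read every 2 min over 30 min. IC50 came from a four-parameter curve fit.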

The nature of another data set: in vitro. The following applies: human.
Data set [4] in a line: Cytotoxicity in HeLa cells without OC43 virus (cell-titer-glo). The following applies: human.

A value given as a limit tells only on which side of the number the result lay.

T3 sequence (P07711 114-333): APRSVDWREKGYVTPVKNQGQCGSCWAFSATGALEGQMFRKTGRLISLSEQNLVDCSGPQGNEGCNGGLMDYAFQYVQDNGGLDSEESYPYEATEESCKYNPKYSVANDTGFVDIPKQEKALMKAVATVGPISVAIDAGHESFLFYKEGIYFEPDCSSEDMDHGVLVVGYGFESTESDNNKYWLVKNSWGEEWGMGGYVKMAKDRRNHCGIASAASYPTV
T2 sequence (P03303 1538-1719): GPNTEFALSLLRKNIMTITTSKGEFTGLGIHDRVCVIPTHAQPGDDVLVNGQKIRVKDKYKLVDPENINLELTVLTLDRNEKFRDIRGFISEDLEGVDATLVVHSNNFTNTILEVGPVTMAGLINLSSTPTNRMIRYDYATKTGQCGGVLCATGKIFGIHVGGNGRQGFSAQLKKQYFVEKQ

`CN1CCN(C(=O)N[C@@H](Cc2ccccc2)C(=O)N[C@H](/C=C/S(=O)(=O)c2ccccc2)CCc2ccccc2)CC1` [Example K117777]: the antiviral effect entry with SARS-CoV-2 (A549-ACE2 when TMPRSS2 was expressed (Steuten et al.)) was “abolished”. Besides, the “inhibition of SARS-CoV-2” value in the data set with SARS-CoV-2 (VeroE6, A549-ACE2 and/or HeLa-ACE2 (Mellott et al.)) is “potent inhibition”. For the same molecule, at 3CLpro, the “inhibitory effect on the 3CLpro” value is recorded as “lacks an inhibitory effect”.

For `CC(C)(C)[C@H](NC(=O)C(F)(F)F)C(=O)N1C[C@H]2[C@@H]([C@H]1C(=O)N[C@H](C#N)C[C@@H]1CCNC1=O)[C@H]1C=C[C@@H]2C12CC2` [Example 25, (1′R,2′S,3′S,6′R,7′S)—N-[(1S)-1-cyano-2-[(3S)-2-oxopyrrolidin-3-yl]ethyl]-4′-[(2S)-3,3-dimethyl-2-(2,2,2-trifluoroacetamido)butanoyl]-4′-azaspiro[cyclopropane-1,10′-tricyclo[5.2.1.0^{2,6}]decan]-8′-ene-3′-carboxamide], the IC50 is < 20 nM on SARS-Cov-2 3CLpro, > 10000 nM on HRV3C and ≥ 10000 nM at human cathepsin L. The EC50 in data set [1] is < 100 nM; in data set [2] it was 100 to 1000 nM; in data set [3], 100 to 1000 nM. Besides, the CC50 in “in vitro” was > 10000 nM. Moreover, in data set [4], the CC50 at 6 days was > 100000 nM.

As usually defined, the IC50 is the concentration that inhibits the measured activity by half. Higher therefore signals weaker potency. The EC50 is the midpoint of the concentration-response curve.
